Assay results taken from PubChem BioAssay AID743168 (Sanford-Burnham Center for Chemical Genomics, 2013).
The source made the active and inactive calls.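 Rule for the calls: active = compounds whose IC50 here is at most triple their IC50 in the earlier fluorescent lipid screen; inactive = the rest.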

biological target: Diacylglycerol O-acyltransferase 1 (Homo sapiens) (UniProt O75907); assay: DGAT-1 acyltransferase activity inhibition, radiometric – biochemical, recombinant hDGAT-1, [14C]-TAG formation, radiolabel, counter-screen for TAG accumulation inhibitor project, dose response (AID 743168); settings: scintillation
Sequence (O75907 whole entry, looked up): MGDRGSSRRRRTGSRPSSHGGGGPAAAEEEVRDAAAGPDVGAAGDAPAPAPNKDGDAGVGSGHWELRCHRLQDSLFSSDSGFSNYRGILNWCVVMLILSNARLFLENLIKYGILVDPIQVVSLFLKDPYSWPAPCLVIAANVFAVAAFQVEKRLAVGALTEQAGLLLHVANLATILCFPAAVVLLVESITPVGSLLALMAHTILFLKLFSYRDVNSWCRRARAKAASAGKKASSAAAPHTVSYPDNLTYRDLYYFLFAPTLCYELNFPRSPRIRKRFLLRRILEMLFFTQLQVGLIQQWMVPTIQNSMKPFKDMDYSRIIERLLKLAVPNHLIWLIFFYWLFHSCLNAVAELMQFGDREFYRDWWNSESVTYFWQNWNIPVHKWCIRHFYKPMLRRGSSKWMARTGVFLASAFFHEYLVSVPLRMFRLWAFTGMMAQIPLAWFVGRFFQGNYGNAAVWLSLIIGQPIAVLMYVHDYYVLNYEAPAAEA

SMILES | IC50
CCCCN1Cc2cccc(C(=O)Nc3cccc(-c4nc5ccccc5[nH]4)c3)c2C1=O | > 50 µM (inactive)
O=C(Nc1cccc(-c2nc3ccccc3[nH]2)c1)c1cccc2c1C(=O)N(CCOc1ccccc1)C2 | > 50 µM (inactive)
CCOCCN1Cc2cccc(C(=O)Nc3cccc(-c4nc5ccccc5[nH]4)c3)c2C1=O | > 50 µM (inactive)
O=C(Nc1cccc(-c2nc3ccccc3[nH]2)c1)c1cccc2c1C(=O)N(CC1CC1)C2 | > 50 µM (inactive)
COCCN1Cc2cccc(C(=O)Nc3cccc(-c4nc5ccccc5[nH]4)c3)c2C1=O | > 50 µM (inactive)
